Consider nine compounds from patent US11166942B2 (PRAXIS BIOTECH LLC, priority 2018, dated 2021).

Where two headings read alike, the source gives them in different places.

Test [1] concerns Chinese hamster ovary (CHO) cells. The test can be described thus: Protein translation assay (puromycin labelling, CHO cells). Format: cell-based. The following applies: media alone = 100%; for activity at 1 µM: Cricetulus griseus, CHO; for % Recovery of protein expression (100 nM test compound): 100 nM compound. The method, then:
Chinese hamster ovary (CHO) cells were maintained at 37° C. and 5% CO2 in Dulbecco's Modified Eagle's Media (DMEM) supplemented with 10% fetal bovine serum, 2 mM L-glutamine, 100 U/ml penicillin, and 100 μg/ml streptomycin. After reaching 80% of confluence, cells were detached and seeded on 6 well plates in complete media, allowed to recover overnight and treated for 2 hours with 1 μM of the test compound (to assess protein synthesis levels in unstressed condition), or for 1 hour with 100 nM or 1 μM of the test compound and then co-treated with 300 nM Tg and 100 nM or 1 μM of the test compound (to assess the recovery of protein synthesis in a stressed condition). Cells treated with Tg alone were used as controls.
After the 2 hours treatments, media were replaced by adding 10 μg/ml puromycin (Sigma Aldrich #P8833) in complete media for 30 min. Media were removed and cells were lysed with SDS-PAGE lysis buffer. Lysates were transferred to 1.5 ml tubes and sonicated for 3 min and total protein amount were quantified using BCA Protein Assay Kit (Pierce). Equal amount of protein (30 μg) was loaded on SDS-PAGE gels. Proteins were transferred onto 0.2 μm PVDF membranes (BioRad) and probed with primary antibodies diluted in Tris-buffered saline supplemented with 0.1% Tween 20 (Merck #S6996184 505) and 3% bovine serum albumin (Rockland #BSA-50).
Puromycin (12D10) (Merck #MABE343) and β-actin (Sigma Aldrich #A5441) antibodies were used as primary antibody. A HRP-conjugated secondary antibody (Rockland) was employed to detect immune-reactive bands using enhanced chemiluminescence (ECL Western Blotting Substrate, Pierce). Quantification of protein bands was done by densitometry using ImageJ software.
Percent increase of protein synthesis in unstressed cells (without Tg treatment) in the presence of media alone or certain test compounds is shown in Table 3 The percentage levels were normalized to the media alone condition, which correspond to 100% protein synthesis.
Percent recovery of protein synthesis in stressed cells (with Tg treatment) due to the test compounds at 100 nM or 1 μM is also shown in Table 3. The levels were normalized to the media alone and to Tg alone conditions, which correspond to 100% and 0% respectively.

In the next test the test system is ATF4. The test can be described thus: ATF4 expression inhibition assay (ATF4 5'UTR luciferase reporter, Tg-stressed HEK293T cells). As to conditions: Homo sapiens, HEK-293T, 3 h; for inhibition at 0.1 µM: read-out: % ATF4 inhibition at 100 nM; for IC50: read-out: ATF4 inhbition IC50; for inhibition at 1 µM: read-out: % ATF4 inhibition at 1 μM. It counts as cell-based, human. The method, then: The ATF4 reporter was prepared by fusing the human full length 5′UTR of ATF4 (NCBI Accession No. BC022088.2) upstream of the firefly luciferase coding sequence lacking the initiator methionine. The fused sequence was cloned into pLenti-EF1a-C-Myc-DDK-IRES-Puro cloning vector (Origen #PS100085) using standard methods. Virus production was carried out by using Lenti-X™ Packaging Single Shots Protocol (Clonetech #631276). Viral particles were used to transduce HEK293T cells (ATCC #CRL-3216, ATCC Manassas, Va.), which were subsequently selected with puromycin to generate stable cell line. Cells were maintained at 37° C. and 5% CO2 in DMEM-F12 (Hyclone #SH30023.02) supplemented with 10% heat-inactivated fetal bovine serum (Gibco #16000-044), 2 mM L-glutamine (Gibco #25030-081), 100 U/ml penicillin, and 100 μg/ml streptomycin (Gibco #15140-122).
HEK293T cells carrying the ATF4 luciferase reporter were plated on 96-well plates (Nunc) at 10,000 cells per well. Cells were treated two days after seeding with 100 nM thapsigargin (Tg) (Sigma-Aldrich #T9033) in the presence of 100 nM or 1 μM. For the assessment of the half-maximal inhibitory concentration (IC50) for selected compounds, dose-response assays were performed. Compounds were serially diluted using DMSO ranging from 0.1 nM to 1 μM. Cells without treatment or cells treated with Tg alone were used as controls. Assay plates containing cells were incubated for 3 hours at 37° C.
Luciferase reactions were performed using Luciferase Assay System (Promega #E1501) as specified by the manufacturer. Luminescence was read with an integration time of 1 s and a gain of 110 using a Cytation-5 multi-mode microplate reader (BioTek). Relative luminescence units were normalized to Tg treatment (0% inhibition) and untreated cells (100% inhibition) and the percentage of ATF4 inhibition was calculated.
Percentages of ATF4 inhibition after induction with Tg in the presence of 100 nM or 1 μM of certain test compounds are shown in Table 2. Also shown in Table 2 is the calculated IC50 for certain test compounds. […] Accordingly, inhibition of ATF4 expression as a result of the test compound indicates suppression of the ISR pathway.

Where [2] appears, read: 2 h, unstressed CHO cells, 1 μM, 2 hours, read-out: % Protein synthesis in unstressed cells (1 μM test compound).
Setting [3] is: CHO cells stressed with 300 nM Tg, 1 μM compound, Tg alone = 0%, read-out: % Recovery of protein expression (1 μM test compound).
The mark [4] stands for this setting: 100 nM test compound, 100 nM thapsigargin, 3 hours, HEK293T ATF4 luciferase reporter.
Setting [5] is: 100 nM thapsigargin, 3 hours, HEK293T ATF4 luciferase reporter.
Where [6] appears, read: 1 μM test compound, 100 nM thapsigargin, 3 hours, HEK293T ATF4 luciferase reporter.
The mark [7] stands for this setting: CHO cells stressed with 300 nM Tg, Tg alone = 0%.

On to `O=C(COc1ccc(Cl)c(F)c1)NN1CCN(C[C@@H](O)COc2ccc(Cl)c(F)c2)CC1` (single isomer, unassigned) [Compound 50], for which the activity at 1 µM in test [1] (setting [2]) was 96.8%; in test [1] (setting [3]), 7.4%. In addition, the inhibition at 0.1 µM in the test with ATF4 (setting [4]) came out at 97.2%. Also, the IC50 in the test on ATF4 (setting [5]) is 1.93 nM. The inhibition at 1 µM in the test on ATF4 (setting [6]) was determined as 100%.
On to `O=C(COc1ccc(Cl)c(F)c1)NN1CCN(C[C@H](O)COc2ccc(Cl)c(F)c2)CC1` (single isomer, unassigned) [Compound 51], for which the values for the activity at 1 µM in test [1] (setting [2]) and in test [1] (setting [3]) were 110% and 22.1%, respectively. In addition, the inhibition at 0.1 µM in the test on ATF4 (setting [4]) turned out to be 79.3%. For the same compound, the IC50 in the test on ATF4 (setting [5]) turned out to be 19.8 nM. The inhibition at 1 µM with ATF4 (setting [6]) turned out to be 100%.
As for `O=C(COc1ccc(Cl)c(F)c1)NN1CCC(NC[C@@H](O)COc2ccc(Cl)c(F)c2)CC1` (single isomer, unassigned) [Compound 52], the activity at 1 µM in test [1] (setting [2]) amounted to 113%; in test [1] (setting [3]), 75.8%. Besides, the inhibition at 0.1 µM in the test with ATF4 (setting [4]) was 75.3%. In the test on ATF4 (setting [5]), the IC50 worked out at 26.9 nM. For the same compound, the inhibition at 1 µM with ATF4 (setting [6]) was 81.2%.
In the case of `O=C(COc1ccc(Cl)c(F)c1)NC1CCN(NC(=O)c2ccc3cc(Cl)ccc3n2)CC1` [Compound 1, 6-chloro-N-(4-(2-(4-chloro-3-fluorophenoxy)acetamido)piperidin-1-yl)quinoline-2-carboxamide], the “% Recovery of protein expression (100 nM test compound)” value (shortened to “% Recovery of protein expression”) in test [1] (setting [7]) is 88.6%. The activity at 1 µM in test [1] (setting [2]) was 112%; in test [1] (setting [3]) it was 218%. Also, the inhibition at 0.1 µM with ATF4 (setting [4]) was determined as 93.7%. The IC50 in the test on ATF4 (setting [5]) is 3.6 nM. Besides, in the test with ATF4 (setting [6]), the inhibition at 1 µM was determined as 97.9%.
On to `O=C(COc1ccc(Cl)c(F)c1)NC1CCN(NC(=O)c2cc3cc(Cl)ccc3o2)CC1` [Compound 2, 5-chloro-N-(4-(2-(4-chloro-3-fluorophenoxy)acetamido)piperidin-1-yl)benzofuran-2-carboxamide], for which, in test [1] (setting [7]), the “% Recovery of protein expression” value was determined as 40.2%. The activity at 1 µM was found to be 87.5% in test [1] (setting [2]) and 123% in test [1] (setting [3]). The inhibition at 0.1 µM with ATF4 (setting [4]) came to 87.1%. The half-inhibitory concentration (IC50) in the test on ATF4 (setting [5]) stood at 18.4 nM. The inhibition at 1 µM in the test with ATF4 (setting [6]) turned out to be 97.6%.
As to `O=C(COc1ccc(Cl)c(F)c1)NN1CCC(NC(=O)c2ccc3cc(Cl)ccc3n2)CC1` [Compound 3, 6-chloro-N-(1-(2-(4-chloro-3-fluorophenoxy)acetamido)piperidin-4-yl)quinoline-2-carboxamide], in test [1] (setting [7]), the “% Recovery of protein expression” value came out at 81.6%. Further, the activity at 1 µM in test [1] (setting [2]) was 152%; in test [1] (setting [3]) it was 190%. Also, the inhibition at 0.1 µM in the test with ATF4 (setting [4]) was 88.1%. In the test on ATF4 (setting [5]), the IC50 stood at 10.6 nM. Besides, the inhibition at 1 µM in the test on ATF4 (setting [6]) was found to be 92.2%.
For `O=C(COc1ccc(Cl)c(F)c1)NN1CCC(NC(=O)c2cc3cc(Cl)ccc3o2)CC1` [Compound 5, 5-chloro-N-(1-(2-(4-chloro-3-fluorophenoxy)acetamido)piperidin-4-yl)benzofuran-2-carboxamide], the “% Recovery of protein expression” value in test [1] (setting [7]) is recorded as −7.1%. The activity at 1 µM in test [1] (setting [2]) came out at 135%; in test [1] (setting [3]) it was 110%. Besides, the inhibition at 0.1 µM in the test on ATF4 (setting [4]) is 85.7%. Besides, the IC50 in the test with ATF4 (setting [5]) was determined as 18.8 nM. Also, the inhibition at 1 µM with ATF4 (setting [6]) came out at 93.7%.
For the compound `O=C(NC1CCN(NCC(O)COc2ccc(Cl)c(F)c2)CC1)C1Cc2cc(Cl)ccc2O1` (stereo not drawn) [Compound 70, 5-chloro-N-(1-((3-(4-chloro-3-fluorophenoxy)-2-hydroxypropyl)amino)piperidin-4-yl)-2,3-dihydrobenzofuran-2-carboxamide], the inhibition at 0.1 µM with ATF4 (setting [4]) stood at 0.4%. Besides, the IC50 in the test with ATF4 (setting [5]) was over 1000 nM. The inhibition at 1 µM with ATF4 (setting [6]) came to 21.4%.
Turning to `O=C(NN1CCN(CC(O)COc2ccc(C(F)(F)F)cc2)CC1)c1ccc2cc(Cl)ccc2n1` (stereo not drawn) [Compound 71, 6-chloro-N-(4-(2-hydroxy-3-(4-(trifluoromethyl)phenoxy)propyl)piperazin-1-yl)quinoline-2-carboxamide], in the test on ATF4, the inhibition at 0.1 µM came to 83.4%, the inhibition at 1 µM amounted to 89.9% and the IC50 is under 100 nM.
